Laboratory results taken from PMC9596378, “Discovery and molecular basis of subtype-selective cyclophilin inhibitors” (Nature Chemical Biology, 2022).
Values joined by “and” are separate entries in the source; they are usually repeats but may differ in a detail not shown here. Equal values may be shown once. Read-outs that look alike come from different tables or passages of the source. Blank lines part the entries; values can stand above or below the compound they belong to.

Columns and labels:
[1] = molecular target: CypD (Homo sapiens, UniProt P30405); test: Chymotrypsin coupled prolyl-isomerase assay; details: for prolyl-isomerase activity (raw dose-response value): CypD
Chain of CypD (P30405 45-207): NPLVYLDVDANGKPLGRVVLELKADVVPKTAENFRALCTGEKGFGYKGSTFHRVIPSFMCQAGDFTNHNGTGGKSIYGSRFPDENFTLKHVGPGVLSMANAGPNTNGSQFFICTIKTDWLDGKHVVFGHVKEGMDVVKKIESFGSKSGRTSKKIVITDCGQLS

[2] = molecular target: T1, CypB (Homo sapiens, UniProt P23284); test: biochemical; details: for prolyl-isomerase activity (raw dose-response value): CypB
T1 construct: PPIB (UniProtKB Entry P23284: residues 34–216); His6 with TEV site (2BT vector leader) (N); made in house; host or cells: E. coli BL21(DE3)
T1 sequence (P23284 34-216): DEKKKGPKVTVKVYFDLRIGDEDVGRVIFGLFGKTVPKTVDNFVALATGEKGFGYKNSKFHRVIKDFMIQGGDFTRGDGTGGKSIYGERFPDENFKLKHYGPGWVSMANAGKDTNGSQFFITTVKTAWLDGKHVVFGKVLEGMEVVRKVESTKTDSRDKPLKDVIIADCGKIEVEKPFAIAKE
Method: (§1) Adapting a previously described protocol, with an Agilent Bravo Velocity 11 with a 384ST head, 90 µL assay buffer (25 mM HEPES pH 7.3, 100 mM NaCl, 0.01% Triton X-100) containing 5.28 nM cyclophilin was added into a flat, clear-bottom, black 384-well plate pre-chilled in a Corning CoolBox at 2–3 °C. Five microliters of compound pre-dissolved in 5% DMSO/assay buffer was then added to appropriate wells and incubated at 2–3 °C for 5 min. Five microliters of 0.5 mM α-chymotrypsin from bovine pancreas (Type II, lyophilized powder, Millipore-Sigma) in 20% 1 mM HCl/Assay Buffer was then added to each well and incubated at 2–3 °C for 5 min. The plate was then quickly transferred to a FLIPR Tetra High-Throughput Cellular Screening System (Molecular Devices). Using the internal liquid handling system of the FLIPR, 1 µL 0.5 mM Suc-AAPF-AMC (Chymotrypsin Substrate II, Millipore-Sigma) dissolved in 0.55 M LiCl/2,2,2-trifluoroethanol was added to each well, which was then mixed for 5 s, followed by immediate fluorescence measurements every 1 s for 330 s using a 360–380 nm excitation LED module and a 400–460 nm emission filter. Final concentrations of the plate include 5 nM cyclophilin, 0.25% DMSO, 25 µM α-chymotrypsin, 5 µM Suc-AAPF-AMC. Raw fluorescence data was analyzed by non-linear regression analysis with Prism v.9 by fitting one-phase association curves to each well. […] Rate constants calculated for each well (s^−1) were then normalized to substrate only (no prolyl-isomerase) and enzyme + substrate only controls. IC50 values were calculated as the value at which 50% inhibition was achieved on the non-linear regression fitted curve of each compound.

[3] = molecular target: T2, PPWD1 (Homo sapiens, UniProt Q96BP3); test: Chymotrypsin coupled prolyl-isomerase assay; assay type: biochemical; details: for IC50: wild-type PPWD1, read-out: Wild-Type Cyclophilin Prolyl Isomerase Inhibition IC50 Values, PPWD1; for prolyl-isomerase activity (raw dose-response value): in s^-1
T2 construct: PPWD1 (UniProtKB Entry Q96BP3: residues 473–646); host or cells: E. coli BL21(DE3)
T2 sequence (Q96BP3 473-646): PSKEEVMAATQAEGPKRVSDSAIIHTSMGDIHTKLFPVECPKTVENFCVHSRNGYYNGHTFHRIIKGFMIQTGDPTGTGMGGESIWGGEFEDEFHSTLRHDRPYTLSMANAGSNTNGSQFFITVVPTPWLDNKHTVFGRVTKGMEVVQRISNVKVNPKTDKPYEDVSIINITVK

[4] = molecular target: T3, NKTR (Homo sapiens, UniProt P30414); test: Chymotrypsin coupled prolyl-isomerase assay; assay type: biochemical; details: for prolyl-isomerase activity (raw dose-response value): NKTR
T3 construct: NKTR (UniProtKB Entry P30414: residues 7–179); host or cells: E. coli BL21(DE3)
T3 sequence (P30414 7-179): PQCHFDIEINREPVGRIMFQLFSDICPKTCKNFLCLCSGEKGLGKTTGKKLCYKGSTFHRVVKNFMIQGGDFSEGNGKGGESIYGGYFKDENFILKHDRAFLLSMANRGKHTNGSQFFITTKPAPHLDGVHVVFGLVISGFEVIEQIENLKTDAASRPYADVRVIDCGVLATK

[5] = molecular target: T4, PPIL1 (Homo sapiens, UniProt Q9Y3C6); test: Chymotrypsin coupled prolyl-isomerase assay; assay type: biochemical
T4 construct: PPIL1 (UniProtKB Entry Q9Y3C6: residues 1–166); made in house; host or cells: E. coli BL21(DE3)
T4 sequence (Q9Y3C6 1-166): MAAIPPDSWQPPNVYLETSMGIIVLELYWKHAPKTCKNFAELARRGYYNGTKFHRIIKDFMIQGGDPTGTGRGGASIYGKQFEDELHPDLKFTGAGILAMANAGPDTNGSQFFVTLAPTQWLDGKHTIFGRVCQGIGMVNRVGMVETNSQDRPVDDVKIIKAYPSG

[6] = molecular target: Cyp40 (Homo sapiens, UniProt Q08752); test: Chymotrypsin coupled prolyl-isomerase assay; details: for prolyl-isomerase activity (raw dose-response value): in s^-1
Chain of Cyp40 (Q08752 1-183): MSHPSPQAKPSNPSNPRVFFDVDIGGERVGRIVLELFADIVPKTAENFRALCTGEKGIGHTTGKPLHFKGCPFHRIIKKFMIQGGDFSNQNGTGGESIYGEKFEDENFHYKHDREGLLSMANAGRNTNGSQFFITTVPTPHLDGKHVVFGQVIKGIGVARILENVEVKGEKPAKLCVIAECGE
Method: as §1

[7] = read-out: Wild-Type Cyclophilin Prolyl Isomerase Inhibition IC50 Values, CypD, wild-type CypD
[8] = wild-type CypB, read-out: Wild-Type Cyclophilin Prolyl Isomerase Inhibition IC50 Values, CypB
[9] = wild-type NKTR, read-out: Wild-Type Cyclophilin Prolyl Isomerase Inhibition IC50 Values, NKTR
[10] = wild-type PPIL1, read-out: Wild-Type Cyclophilin Prolyl Isomerase Inhibition IC50 Values, PPIL1
[11] = read-out: Wild-Type Cyclophilin Prolyl Isomerase Inhibition IC50 Values, Cyp40, wild-type Cyp40

CypD prolyl-isomerase inhibition (in words) [1]: do not inhibit CypD in vitro
IC50 [1, 7]: > 10 µM
IC50 [2, 8]: > 10 µM
IC50 [3]: > 10 µM
IC50 [4, 9]: > 10 µM
IC50 [5, 10]: > 10 µM
IC50 [6, 11]: > 10 µM
SMILES: C[N+]1=C(C=CC=CC=C2N(CCCCCC(=O)NCCNC(=O)C3CCNC(=O)C=CC(=O)N4CCCC(Cc5ccccc5)(C4)C(=O)NC(Cc4ccc(-c5ccc(CC(C(=O)O)C(=O)O)cc5)cc4)C(=O)NCc4ccccc4CC(=O)N3)c3ccccc3C2(C)C)C(C)(C)c2ccccc21 (stereo not shown) [*B52-Cy5]

CypD prolyl-isomerase inhibition (in words) [1]: do not inhibit CypD in vitro
IC50 [1, 7]: > 10 µM
IC50 [2, 8]: > 10 µM
IC50 [3]: > 10 µM
IC50 [4, 9]: > 10 µM
IC50 [5, 10]: > 10 µM
IC50 [6, 11]: > 10 µM
SMILES: C[N+]1=C(C=CC=CC=C2N(CCCCCC(=O)NCCNC(=O)C3CCNC(=O)C=CC(=O)N4CCCC(Cc5ccccc5)(C4)C(=O)NC(Cc4ccc(-c5ccc(C(CC(=O)O)CC(=O)O)cc5)cc4)C(=O)NCc4ccccc4CC(=O)N3)c3ccccc3C2(C)C)C(C)(C)c2ccccc21 (stereo not shown) [*B53-Cy5]

SMILES: NCCOCCNC(=O)[C@@H]1CCNC(=O)/C=C/C(=O)N2CCC[C@](Cc3ccccc3)(C2)C(=O)N[C@@H](Cc2ccc(C(=O)c3ccccc3)cc2)C(=O)NCc2ccccc2CC(=O)N1 [Compound B1]
IC50 [1]: 0.04 µM
prolyl-isomerase activity (raw dose-response value) ([1]; dose 0.00244141 µM): 0.1167 and 0.1009 and 0.132
prolyl-isomerase activity (raw dose-response value) ([1]; dose 0.00488281 µM): 0.1171 and 0.1006 and 0.1105
prolyl-isomerase activity (raw dose-response value) ([1]; dose 0.00976562 µM): 0.1045 and 0.1074 and 0.1165
prolyl-isomerase activity (raw dose-response value) ([1]; dose 0.0195312 µM): 0.0977 and 0.1005 and 0.09149
prolyl-isomerase activity (raw dose-response value) ([1]; dose 0.0390625 µM): 0.07882 and 0.0807 and 0.08119
prolyl-isomerase activity (raw dose-response value) ([1]; dose 0.078125 µM): 0.05821 and 0.05418 and 0.05518
prolyl-isomerase activity (raw dose-response value) ([1]; dose 0.15625 µM): 0.03845 and 0.03512 and 0.03854
prolyl-isomerase activity (raw dose-response value) ([1]; dose 0.3125 µM): 0.0261 and 0.02523 and 0.02516
prolyl-isomerase activity (raw dose-response value) ([1]; dose 0.625 µM): 0.0197 and 0.01788 and 0.01929
prolyl-isomerase activity (raw dose-response value) ([1]; dose 1.25 µM): 0.01434 and 0.01347 and 0.01416
prolyl-isomerase activity (raw dose-response value) ([1]; dose 2.5 µM): 0.009932 and 0.009111 and 0.008108
prolyl-isomerase activity (raw dose-response value) ([2]; dose 0.00114312 µM): 0.08676 and 0.07612 and 0.1045
prolyl-isomerase activity (raw dose-response value) ([2]; dose 0.00342935 µM): 0.09293 and 0.08942 and 0.1133
prolyl-isomerase activity (raw dose-response value) ([2]; dose 0.0102881 µM): 0.05857 and 0.07024 and 0.08235
prolyl-isomerase activity (raw dose-response value) ([2]; dose 0.0308642 µM): 0.06507 and 0.05219 and 0.06265
prolyl-isomerase activity (raw dose-response value) ([2]; dose 0.0925926 µM): 0.05131 and 0.04637 and 0.04858
prolyl-isomerase activity (raw dose-response value) ([2]; dose 0.277778 µM): 0.03303 and 0.03453 and 0.03517
prolyl-isomerase activity (raw dose-response value) ([2]; dose 0.833333 µM): 0.03176 and 0.0219 and 0.02127
prolyl-isomerase activity (raw dose-response value) ([2]; dose 2.5 µM): 0.01492 and 0.01697 and 0.01392
IC50 [2, 8]: 0.03 µM
prolyl-isomerase activity (raw dose-response value) ([3]; PPWD1, dose 0.00244141 µM): 0.05276 and 0.05431 and 0.05271
prolyl-isomerase activity (raw dose-response value) ([3]; PPWD1, dose 0.00488281 µM): 0.05268 and 0.05435 and 0.05318
prolyl-isomerase activity (raw dose-response value) ([3]; PPWD1, dose 0.00976562 µM): 0.05613 and 0.05695 and 0.05468
prolyl-isomerase activity (raw dose-response value) ([3]; PPWD1, dose 0.0195312 µM): 0.05207 and 0.05349 and 0.04937
prolyl-isomerase activity (raw dose-response value) ([3]; PPWD1, dose 0.0390625 µM): 0.05208 and 0.05238 and 0.05082
prolyl-isomerase activity (raw dose-response value) ([3]; PPWD1, dose 0.078125 µM): 0.04871 and 0.04927 and 0.04631
prolyl-isomerase activity (raw dose-response value) ([3]; PPWD1, dose 0.15625 µM): 0.04828 and 0.0525 and 0.04634
prolyl-isomerase activity (raw dose-response value) ([3]; PPWD1, dose 0.3125 µM): 0.04787 and 0.04701 and 0.04264
prolyl-isomerase activity (raw dose-response value) ([3]; PPWD1, dose 0.625 µM): 0.04382 and 0.04097 and 0.03416
prolyl-isomerase activity (raw dose-response value) ([3]; PPWD1, dose 1.25 µM): 0.03009 and 0.02964 and 0.0254
prolyl-isomerase activity (raw dose-response value) ([3]; PPWD1, dose 2.5 µM): 0.02331 and 0.02391 and 0.0225
IC50 [3]: 1.4 µM
prolyl-isomerase activity (raw dose-response value) ([4]; dose 6.125 µM): 0.03455 and 0.03286 and 0.03325
prolyl-isomerase activity (raw dose-response value) ([4]; dose 12.5 µM): 0.03629 and 0.03152 and 0.03174
prolyl-isomerase activity (raw dose-response value) ([4]; dose 25 µM): 0.03462 and 0.03246 and 0.03111
prolyl-isomerase activity (raw dose-response value) ([4]; dose 50 µM): 0.03275 and 0.03195 and 0.02857
prolyl-isomerase activity (raw dose-response value) ([4]; dose 100 µM): 0.02401 and 0.02915 and 0.0269
IC50 [4, 9]: > 100 µM
prolyl-isomerase activity (raw dose-response value) ([5]; PPIL1, dose 0.0228624 µM): 0.0901 and 0.08843 and 0.1022
prolyl-isomerase activity (raw dose-response value) ([5]; PPIL1, dose 0.0685871 µM): 0.07658 and 0.07564 and 0.08071
prolyl-isomerase activity (raw dose-response value) ([5]; PPIL1, dose 0.205761 µM): 0.05553 and 0.06081 and 0.06346
prolyl-isomerase activity (raw dose-response value) ([5]; PPIL1, dose 0.617284 µM): 0.04442 and 0.03692 and 0.0407
prolyl-isomerase activity (raw dose-response value) ([5]; PPIL1, dose 1.85185 µM): 0.02604 and 0.02534 and 0.024
prolyl-isomerase activity (raw dose-response value) ([5]; PPIL1, dose 5.55556 µM): 0.01797 and 0.0175 and 0.01949
prolyl-isomerase activity (raw dose-response value) ([5]; PPIL1, dose 16.6667 µM): 0.01539 and 0.0139 and 0.01238
prolyl-isomerase activity (raw dose-response value) ([5]; PPIL1, dose 50 µM): 0.01281 and 0.01627 and 0.01081
IC50 [5, 10]: 0.2 µM
prolyl-isomerase activity (raw dose-response value) ([6]; Cyp40, dose 0.0228624 µM): 0.05537 and 0.05091 and 0.0526
prolyl-isomerase activity (raw dose-response value) ([6]; Cyp40, dose 0.0685871 µM): 0.04831 and 0.04914 and 0.04761
prolyl-isomerase activity (raw dose-response value) ([6]; Cyp40, dose 0.205761 µM): 0.03428 and 0.03147 and 0.03197
prolyl-isomerase activity (raw dose-response value) ([6]; Cyp40, dose 0.617284 µM): 0.02396 and 0.01982 and 0.02092
prolyl-isomerase activity (raw dose-response value) ([6]; Cyp40, dose 1.85185 µM): 0.01751 and 0.01672 and 0.01432
prolyl-isomerase activity (raw dose-response value) ([6]; Cyp40, dose 5.55556 µM): 0.0143 and 0.01339 and 0.01386
prolyl-isomerase activity (raw dose-response value) ([6]; Cyp40, dose 16.6667 µM): 0.01332 and 0.01439 and 0.01303
prolyl-isomerase activity (raw dose-response value) ([6]; Cyp40, dose 50 µM): 0.01384 and 0.01317 and 0.01466
IC50 ([6]; Wild-Type Cyclophilin Prolyl Isomerase Inhibition IC50 Values, Cyp40, wild-type Cyp40): 0.05 µM

SMILES: NC(=O)[C@@H]1CCNC(=O)/C=C/C(=O)N2CCC[C@](Cc3ccccc3)(C2)C(=O)N[C@@H](Cc2ccc(-c3cccc(B(O)O)c3)cc2)C(=O)NCc2ccccc2CC(=O)N1 [Compound C6A]
IC50 [1, 7]: 1.1 µM
IC50 ([2]; prolyl-isomerase inhibition, 5 nM cyclophilin, read-out: IC50 CypB): ~8 µM
IC50 [2, 8]: 8 µM
IC50 [3]: > 10 µM
IC50 ([4]; prolyl-isomerase inhibition, 5 nM cyclophilin, read-out: IC50 NKTR): > 10 µM
IC50 [4, 9]: 5 µM
IC50 ([5]; prolyl-isomerase inhibition, 5 nM cyclophilin, read-out: IC50 PPIL1): ~5 µM
IC50 [5, 10]: > 10 µM
